26 molecules from patent US9079853B2, “Isatin compounds, compositions and methods for treatment of degenerative diseases and disorders” (MUSC FOUNDATION FOR RESEARCH DEVELOPMENT, priority 2013, dated 2015) can be followed below.

Test [1] concerns 661W or C6 cells. As to the kind of experiment: MTT assay, protection against calcium-ionophore A23187. The class given is cell-based. As to conditions: 1 μM A23187, 24 h. On the procedure: The compound 3-(4,5-Dimethylthiazol-2-yl)-2,5-diphenyltetrazolium bromide (MTT) is a tetrazolium ion that is reduced to a blue formazan dye via several families of NAD(P)H-dependent oxidoreductases. Formation of the formazan dye from MTT or other related tetrazolium dyes are commonly used as a viability assay even though, in fact, the assay is a metabolic capacity assay.
In this assay, 661W or C6 cells were maintained in DMEM supplemented with 10% FBS. 100 μL of 70,000 cells/mL cells were seeded into each well of 96 well plates using DMEM supplemented with 5% FBS. Cells were then allowed to grow to confluency for 48 hours. The compounds of the invention were added in 2 μL media and calcium-ionophore A23187 was then added in 1 μL for a final concentration of 1 μM and after 24 h, 20 μL of […] MTT were added to each well and the cells were incubated for another 4 h after which 100 μL of 1% SDS in 0.01M aqueous HCl were added to each well and the plates were incubated overnight. Absorbance was measured at […] (background correction). The 1 μM ionophore A23187 caused about 50% loss in MTT signal at 24 h. Protection was calculated as the increase in absorbance of treatment groups normalized to the vehicle control.
For orientation: Formazan colour is commonly taken as a measure of viable cells.

Test [2] deals with 661W or C6 cells. As to the kind of experiment: XF FCCP-uncoupled oxygen consumption rate assay (IBMX challenge).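 For all read-outs here: values normalized to the vehicle control.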 As to conditions: 1 h pretreatment, 600 μM IBMX, 24 h, read-out: XF FCCP OCR (% Ctrl); for activity at 0.001 µM: compound 1 nM; for activity at 0.01 µM: compound 10 nM; for activity at 0.0008 µM: compound 800 pM. The class given is cell-based. On the procedure: The XF FCCP-uncoupled oxygen consumption rate assay assesses mitochondrial capacity by measuring cellular respiration. It was shown that the maximum FCCP-uncoupled oxygen consumption rate (OCR) was a good estimate of maximal mitochondrial capacity (Beeson 2010) and that IBMX treatment of 661W or C6 cells for 24 h caused a loss in maximal uncoupled OCR (Perron 2013). Thus, cells were pretreated with the exemplified compounds for 1 h, added 600 μM IBMX and then measured the uncoupled rate after 24 h. In brief, the OCR measurements were performed using a Seahorse Bioscience XF instrument (Seahorse Bioscience, Billerica, Md.), as previously published (Perron 2013). O2 leakage through the plastic sides and bottom of the plate was accounted for using the AKOS algorithm in the XF software package. Cells were plated on 96- or 24-well custom plates designed for use in the XF and grown to confluency in DMEM+5% FBS (48 h). The medium was then replaced with DMEM+1% FBS for 24 h, along with any treatments.

`CCCN1C(=O)C(O)(CC(=O)c2cccc(OC)n2)c2cc(C)ccc21` (stereo not shown) [Example 26, 3-hydroxy-3-(2-(6-methoxypyridin-2-yl)-2-oxoethyl)-5-methyl-1-propylindolin-2-one]: the “MTT, % protection” value in the test on 661W or C6 cells [1] (compound 10 nM) is reported as 83.8%,. Besides, the activity at 0.001 µM in the test on 661W or C6 cells [2] worked out at 62%.
Regarding `CCCN1C(=O)C(O)(CC(=O)c2c[nH]c3ccccc23)c2cc(C)ccc21` (stereo not shown) [Example 24, 3-(2-(1H-indol-3-yl)-2-oxoethyl)-3-hydroxy-5-methyl-1-propylindolin-2-one], the “MTT, % protection” value in the test with 661W or C6 cells [1] (compound 1 nM) is reported as 69%,. The activity at 0.01 µM in the test with 661W or C6 cells [2] is 59%.
With `CCN1C(=O)C(O)(Cc2ccc(OC)cc2)c2cc(C)ccc21` (stereo not shown) [Example 51, 1-ethyl-3-hydroxy-3-(4-methoxybenzyl)-5-methylindolin-2-one], the “MTT, % protection” value in the test on 661W or C6 cells [1] (compound 1 nM) is given as 62.2%,. Moreover, the activity at 0.001 µM in the test on 661W or C6 cells [2] is 65%.
Regarding `COc1cc(CC2(O)C(=O)N(CC(C)C)c3ccc(C)cc32)cc(OC)c1OC` (stereo not shown) [Example 37, 3-hydroxy-1-isobutyl-5-methyl-3-(3,4,5-trimethoxybenzyl)indolin-2-one], the “MTT, % protection” value with 661W or C6 cells [1] (compound 800 pM) is recorded as 68.4%,. For the same molecule, the activity at 0.001 µM in the test on 661W or C6 cells [2] came out at 65%.
In the case of `COc1ccc(CC2(OC(=O)c3ccccc3)C(=O)N(CCCN3CCOCC3)c3ccc(Cl)cc32)c(O)c1` (stereo not shown) [Example 56, 5-chloro-3-(2-hydroxy-4-methoxybenzyl)-1-(3-morpholinopropyl)-2-oxoindolin-3-yl benzoate], in the test on 661W or C6 cells [1] (compound 1 nM), the “MTT, % protection” value is 85.3%,. The activity at 0.001 µM in the test with 661W or C6 cells [2] turned out to be 68%.
`COc1ccc(O)c(CC2(OC(=O)c3ccccc3)C(=O)N(CCc3ccccc3)c3ccc(Cl)cc32)c1` (stereo not shown) [Example 61, 5-chloro-3-(2-hydroxy-5-methoxybenzyl)-2-oxo-1-phenethylindolin-3-yl benzoate]: the “MTT, % protection” value in the test with 661W or C6 cells [1] (compound 1 nM) is listed as 87.1%,. Moreover, the activity at 0.001 µM in the test on 661W or C6 cells [2] worked out at 67%.
The corresponding values for `CCCN1C(=O)C(O)(CC(=O)c2ccc(OC)nc2OC)c2cc(C)ccc21` (stereo not shown) [Example 25, 3-(2-(2,6-dimethoxypyridin-3-yl)-2-oxoethyl)-3-hydroxy-5-methyl-1-propylindolin-2-one] are 73.8%, and 57%.
The corresponding values for `CCCCN1C(=O)C(O)(Cc2cccc(OC)c2)c2cc(Cl)ccc21` (stereo not shown) [Example 42, 1-butyl-5-chloro-3-hydroxy-3-(3-methoxybenzyl)indolin-2-one] are 69.8%, and 71%.
The like results for `CCCN1C(=O)C(Cc2c[nH]c3ccccc23)(OC(=O)c2ccccc2)c2cc(Cl)ccc21` (stereo not shown) [Example 63, 3-((1H-indol-3-yl)methyl)-5-chloro-2-oxo-1-propylindolin-3-yl benzoate] were, in that order, 120%, and 78%.
As for `CCN1C(=O)C(Cc2cccc(OC)c2)(OC(=O)c2ccccc2)c2cc(Cl)ccc21` (stereo not shown) [Example 40, 5-chloro-1-ethyl-3-(3-methoxybenzyl)-2-oxoindolin-3-yl benzoate], the “MTT, % protection” value with 661W or C6 cells [1] (compound 1 nM) is on record as 81.1%,. Besides, in the test on 661W or C6 cells [2], the activity at 0.001 µM amounted to 66%.
Take `CCN1C(=O)C(Cc2cc(OC)cc(OC)c2)(OC(=O)c2ccccc2)c2cc(C)ccc21` (stereo not shown) [Example 38, 3-(3,5-dimethoxybenzyl)-1-ethyl-5-methyl-2-oxoindolin-3-yl benzoate]: the “MTT, % protection” value in the test with 661W or C6 cells [1] (compound 1 nM) is reported as 84.1%,. Moreover, the activity at 0.001 µM with 661W or C6 cells [2] turned out to be 78%.
On to `CCCCN1C(=O)C(Cc2c[nH]c3ccccc23)(OC(=O)c2ccccc2)c2ccccc21` (stereo not shown) [Example 65, 3-((1H-indol-3-yl)methyl)-1-butyl-2-oxoindolin-3-yl benzoate], for which the “MTT, % protection” value in the test on 661W or C6 cells [1] (compound 500 pM) is on record as 135%,. Moreover, the activity at 0.0005 µM in the test on 661W or C6 cells [2] (compound 500 pM) is 61%.
On to `CCN1C(=O)C(Cc2cc(OC)ccc2O)(OC(=O)c2ccccc2)c2cc(Cl)ccc21` (stereo not shown) [Example 62, 5-chloro-1-ethyl-3-(2-hydroxy-5-methoxybenzyl)-2-oxoindolin-3-yl benzoate], for which the “MTT, % protection” value with 661W or C6 cells [1] (compound 800 pM) is 86.4%,. Further, the activity at 0.0008 µM with 661W or C6 cells [2] was 70%.
Consider `CCCN1C(=O)C(O)(CC(=O)c2ccc(OC)nc2OC)c2cc(Cl)ccc21` (stereo not shown) [Example 22, 5-chloro-3-(2-(2,6-dimethoxypyridin-3-yl)-2-oxoethyl)-3-hydroxy-1-propylindolin-2-one], for which the “MTT, % protection” value with 661W or C6 cells [1] (compound 10 nM) is 71.8%,. In the test on 661W or C6 cells [2], the activity at 0.01 µM came to 76%.
Turning to `CCCCN1C(=O)C(O)(Cc2cc(OC)cc(OC)c2)c2cc(Cl)ccc21` (stereo not shown) [Example 41, 1-butyl-5-chloro-3-(3,5-dimethoxybenzyl)-3-hydroxyindolin-2-one], in the test with 661W or C6 cells [1] (compound 1 μM), the “MTT, % protection” value is recorded as 66.8%,. For the same molecule, in the test with 661W or C6 cells [2], the activity at 0.001 µM was 79%.
Consider `COc1cc(CC2(OC(=O)c3ccccc3)C(=O)N(CC(C)C)c3ccc(Cl)cc32)cc(OC)c1OC` (stereo not shown) [Example 35, 5-chloro-1-isobutyl-2-oxo-3-(3,4,5-trimethoxybenzyl)indolin-3-yl benzoate], for which the “MTT, % protection” value in the test with 661W or C6 cells [1] (compound 800 pM) is 113.5%,. Besides, the activity at 0.0008 µM with 661W or C6 cells [2] is 55%.
As for `CCCN1C(=O)C(O)(CC(=O)c2ccccn2)c2cc(Cl)ccc21` (stereo not shown) [Example 23, 5-chloro-3-hydroxy-3-(2-oxo-2-(pyridin-2-yl)ethyl)-1-propylindolin-2-one], in the test with 661W or C6 cells [1] (compound 10 nM), the “MTT, % protection” value is listed as 73%,. Further, the activity at 0.01 µM in the test with 661W or C6 cells [2] was determined as 73%.
`CCCN1C(=O)C(O)(Cc2ccc(OC)cn2)c2cc(C)ccc21` (stereo not shown) [Example 6, 3-hydroxy-3-((5-methoxypyridin-2-yl)methyl)-5-methyl-1-propylindolin-2-one]: the “MTT, % protection” value with 661W or C6 cells [1] (compound 500 pM) was 68.8%,. For the same molecule, the activity at 0.0008 µM in the test on 661W or C6 cells [2] amounted to 67%.
As to `COc1cc(CC2(O)C(=O)N(CC(C)C)c3ccccc32)cc(OC)c1OC` (stereo not shown) [Example 48, 3-hydroxy-1-isobutyl-3-(3,4,5-trimethoxybenzyl)indolin-2-one], the “MTT, % protection” value in the test on 661W or C6 cells [1] (compound 1 nM) was 91%,. For the same molecule, the activity at 0.001 µM in the test on 661W or C6 cells [2] stood at 85%.
The like results for `CCCN1C(=O)C(O)(Cc2cccc(OC)c2)c2cc(C)ccc21` (stereo not shown) [Example 43, 3-hydroxy-3-(3-methoxybenzyl)-5-methyl-1-propylindolin-2-one] were, in that order, 64.8%, and 69%.
Take `COc1cc(CC2(OC(=O)c3ccccc3)C(=O)N(CCc3ccccc3)c3ccc(Cl)cc32)cc(OC)c1OC` (stereo not shown) [Example 50, 5-chloro-2-oxo-1-phenethyl-3-(3,4,5-trimethoxybenzyl)indolin-3-yl benzoate]: the “MTT, % protection” value in the test on 661W or C6 cells [1] (compound 1 nM) is listed as 79.2%,. Moreover, the activity at 0.001 µM in the test on 661W or C6 cells [2] was found to be 65%.
For the molecule `COc1cc(CC2(OC(=O)c3ccccc3)C(=O)N(CCc3ccccc3)c3ccc(C)cc32)cc(OC)c1` (stereo not shown) [Example 39, 3-(3,5-dimethoxybenzyl)-5-methyl-2-oxo-1-phenethylindolin-3-yl benzoate], the “MTT, % protection” value in the test on 661W or C6 cells [1] (compound 1 nM) is 83.2%,. The activity at 0.001 µM in the test with 661W or C6 cells [2] was found to be 66%.
The like results for `COc1ccc(CC2(OC(=O)c3ccccc3)C(=O)N(CCCC(C)C)c3ccc(C)cc32)c(O)c1` (stereo not shown) [Example 53, 3-(2-hydroxy-4-methoxybenzyl)-5-methyl-1-(4-methylpentyl)-2-oxoindolin-3-yl benzoate] were, in that order, 100%, and 91%.
As for `COc1cccnc1CC1(O)C(=O)N(CCc2ccccc2)c2ccc(Cl)cc21` (stereo not shown) [Example 3, 5-chloro-3-hydroxy-3-((3-methoxypyridin-2-yl)methyl)-1-phenethylindolin-2-one], in the test with 661W or C6 cells [1] (compound 1 nM), the “MTT, % protection” value is reported as 74.5%,. In the test on 661W or C6 cells [2], the activity at 0.001 µM is 74.5%.
The like results for `CCCN1C(=O)C(O)(CC(=O)c2cccc(OC)n2)c2cc(Cl)cc(Cl)c21` (stereo not shown) [Example 30, 5,7-dichloro-3-hydroxy-3-(2-(6-methoxypyridin-2-yl)-2-oxoethyl)-1-propylindolin-2-one] were, in that order, 69%, and 59%.
Consider `O=C1N(CCN2CCCCC2)c2ccc(Cl)cc2C1(O)Cc1ccccn1` (stereo not shown) [Example 4, 5-chloro-3-hydroxy-1-(2-(piperidin-1-yl)ethyl)-3-(pyridin-2-ylmethyl)indolin-2-one], for which the “MTT, % protection” value in the test with 661W or C6 cells [1] (compound 800 pM) is recorded as 61.5%,. Also, the activity at 0.001 µM in the test on 661W or C6 cells [2] is 69%.
